Test system: Rattus norvegicus
Test: Anti-inflammatory activity in Rattus norvegicus albino (rat) assessed as inhibition of carrageenan-induced paw edema at 50 mg/kg, po administered 30 min before carrageenan challenge measured after 1 to 3 hr by plethysmometer analysis
Format: functional

| SMILES | inhibition in vivo at 50 mg/kg |
| --- | --- |
| CC1=CC(C)(C)NC(=S)N1Cc1ccncc1 | 25% |
| CC1CC(O)N(Cc2ccncc2)C(=S)N1 (stereo not given) | 30% |
| Cc1cccc2c1N1C(=S)NC(C)CC1N2 (stereo not given) | 0% |
| CC1C=CN(CCc2c[nH]c3ccccc23)C(=S)N1 (stereo not given) | 25% |
| CC1CC2Nc3ccc(Br)cc3N2C(=S)N1 (stereo not given) | 27% |
| CC1=CC(C)(C)NC(=S)N1c1cc(Br)ccc1N | 31% |
| CC1CC(O)N(CCN2CCCCC2)C(=S)N1 (stereo not given) | 29% |
| CC1=CC(C)(C)NC(=S)N1CC1CCCO1 (stereo not given) | 18% |
| CC1=CC(C)(C)NC(=S)N1c1cc(C#N)ccc1N | 32% |
| CC1=CC(C)(C)NC(=S)N1CCc1c[nH]c2ccccc12 | 30% |
| CC1(C)CC(C)(O)N(CCN2CCOCC2)C(=S)N1 (stereo not given) | 35% |
| CC1(C)CC2(C)Nc3ccc(Br)cc3N2C(=S)N1 (stereo not given) | 24% |
| CC1CC(O)N(CCN2CCCC2)C(=S)N1 (stereo not given) | 30% |
| CC1CC(O)N(CCN2CCOCC2)C(=S)N1 (stereo not given) | 38% |
| CC1(C)CC2(C)Nc3ccc(C#N)cc3N2C(=S)N1 (stereo not given) | 39% |
| CC1CC(O)N(CC2CCCO2)C(=S)N1 (stereo not given) | 18% |
| CC1(C)CC(C)(O)N(CCN2CCCC2)C(=S)N1 (stereo not given) | 8% |
| CC1=CC(C)(C)NC(=S)N1c1cc(C)ccc1O | 27% |
| CC(C)Cc1ccc(C(C)C(=O)O)cc1 (stereo not given) [IBUPROFEN] | 39% |
| CC1(C)CC(C)(O)N(Cc2ccncc2)C(=S)N1 (stereo not given) | 27% |
